Measured values from patent publication US9084770B2, “Modulation of insulin like growth factor I receptor expression in cancer” (Antisense Therapeutics, Ltd., priority 2008, dated 2015).

Tests used:
PC3 cells = assay: PC3 viable cells and apoptosis after transfection plus Paclitaxel
Protocol: PC3 cells cultured in vitro were transfected at concentrations of IGF-IR antisense oligonucleotide (ATL1101) or control oligodeoxynucleotide (ISIS 306064) ranging from 12.5 nM to 50 nM or oligofectamine control once per day on two sequential days. After the 2nd transfection, the PC3 cells were treated with concentrations of between 0.1 to 50 nM Paclitaxel. The number of viable cells remaining were determined 72 hours after Paclitaxel treatment.

PC3 tumors [1] = assay: PC-3 xenograft, tumor volume (monotherapy); type: in vivo, mice; conditions: 15 mg/kg i.p.
Protocol: One million PC-3 or LNCaP cells were injected subcutaneously in athymic mice. For LNCaP xenografts, when PSA values exceeded 50 ng/ml, mice were castrated and randomly selected for treatment with ATL1101 or control oligodeoxynucleotide (15 mg/kg) injected i.p. once daily for 7 days and 3 times per week thereafter. Blood samples were obtained from the tail vein of the mice once weekly to measure serum PSA by ELISA. For PC-3 xenografts, when tumors reached 100 mm^3, mice were randomly selected and treated with the same protocol as LNCaP.
The effects of IGF-IR antisense oligonucleotide treatment in LNCaP and PC-3 tumors in vivo are show in FIGS. 5A-5C. LNCaP cells were inoculated s.c. and when PSA values exceeded 50 ng/ml, mice were castrated and randomly selected for treatment with ATL1101 or control oligodeoxynucleotide (15 mg/kg) injected i.p. once daily for 7 days and 3 times per week thereafter. Blood samples were obtained from the tail vein of the mice once weekly to measure serum PSA by ELISA. PC-3 cells were inoculated s.c. and when tumors reached 100 mm^3, mice were randomly selected for treatment with the same protocol as LNCaP. Each point represents the mean tumor volume in each group containing 10 mice; bars, SE. * differs from control oligodeoxynucleotide treatment group (p<0.05) by Student's t test.

IGF-IR mRNA = IGF-IR mRNA in PC3 Ptx-R cells; type: cell-based, human; conditions: 10 to 200 nM, compared to oligofectamine transfection reagent
Excerpt: (§1) The PC3 Ptx-R cells retain sensitivity to ATL1101-induced IGF-IR down regulation at the mRNA and protein level as shown in FIGS. 11A-C. […] ATL1101 and the control oligodeoxynucleotide ISIS 306064 had no effect on either of the alternative spliced isoform transcripts of the insulin receptor, IR-A, IR-B or IR-β protein or vinculin protein levels.

IGF-IRβ subunit protein = IGF-IRβ subunit protein in PC3 Ptx-R cells; type: cell-based, human; conditions: 10 to 200 nM, compared to oligofectamine transfection reagent
Excerpt: as §1

LNCaP cells = assay: LNCaP cell viability, crystal violet assay; type: cell-based, human
Protocol: Established methods were used to test the activity of IGF-IR antisense oligonucleotide on LNCaP and PC-3 cell growth (crystal violet assay) and apoptosis (FACS). Dose- and sequence-specific suppression of IGF-IR mRNA and protein expression in ATL1101-treated LNCaP and PC3 PC cell lines in vitro were observed by QT-PCR and western blotting. Effects of the IGF-IR antisense oligonucleotide on various putative targets, including IGF-IR and downstream targets were evaluated using western blotting.
Cells were transfected with indicated concentrations of ATL1101, control oligodeoxynucleotides or oligofectamine as in FIGS. 1A(i)-1A(ii). Three days after treatment, cell viability was determined by crystal violet assay. Viable cell density was normalized to that of cells treated with oligofectamine. Points, means of triplicate analysis; bars, SE. *, p<0.05 differs from control oligodeoxynucleotide treatment group. **, p<0.01 differs from control oligodeoxynucleotide treatment group by Student's t test.

[2] = test system: IGF-IRβ, p-AKT, p-ERK1/2, cleaved PARP; assay: Intracellular signaling in LNCaP and PC3 cells, immunoblot; type: cell-based, human; conditions: 100 nM
Protocol: The suppression of intracellular signaling in IGF-IR antisense oligonucleotide-treated LNCaP (FIG. 3A) and PC3 (FIG. 3B) in vitro is shown in FIGS. 3A-3B. LNCaP or PC3 cells were transfected with 100 nM ATL1101 or control oligodeoxynucleotide (ISIS 306064) for two days. Cells were then cultured in FBS media for one day and in serum-free media for one day. Whole cell lysates (30 μg) were subjected to SDS-PAGE and immunoblotted to assess IGF-IRβ, p-AKT, total AKT, p-ERK1/2, total ERK1/2, cleaved PARP, and vinculin protein levels. Oligo, oligofectamine treated cells only.

PC3 tumors [3] = assay: PC-3 xenograft with Paclitaxel, mean tumor volume; type: in vivo, mice; conditions: for mean tumor size: 15 mg/kg i.p. oligonucleotide plus Paclitaxel; for mean tumor size, % of control: plus Paclitaxel
Excerpt: In vivo treatments in a PC-3 xenograft model were done substantially as described by Zellweger et al., 2001. PC3 cells (2×10^6 cells) were xenografted by subcutaneous injection into recipient 6-8 week-old athymic nude (nu/nu) mice. When tumors reached 200 mm^3, mice were randomly assigned to one of two arms for treatment with 2′-MOE-modified IGF-IR antisense oligonucleotide (ATL1101) plus Paclitaxel, or mismatch control oligodeoxynucleotide ISIS 306064 plus Paclitaxel. Each experimental group consisted of 10 mice. After randomization, 15 mg/kg of ATL1101 antisense oligonucleotide or mismatch control oligonucleotide were injected intraperitoneal (i.p.) into each mouse once daily for the first 5 days and 3 times a week (every other day) thereafter for 7 weeks. On days 7, 9, 11, and on days 21, 23, and 25, 0.5 mg of polymeric micellar Paclitaxel was administered once daily by i.v. injection. Mean Tumor volume was measured once weekly for 8 weeks and calculated by the formula length×width×depth×0.5236.
In PC3 mice, after 5 weeks of treatment, mean tumor size in mice treated with Paclitaxel and mismatch control oligodeoxynucleotide was 326+/−40.9 mm^3 compared with 175+/−20.1 mm^3 in mice treated with Paclitaxel and ATL1101, or 53.7% of control (p<0.01). After 8 weeks of treatment, mean tumor size in mice treated with Paclitaxel and mismatch control oligodeoxynucleotide was 1417+/−222 mm^3 compared with 507+/−79.3 mm^3 in mice treated with Paclitaxel and ATL1101, or 35.8% of control (p<0.01).

Substance: cgaaggaaacaatactccga (CGAAGGAAACAATACTCCGA; 2'-MOE modified, pattern not given here) [ISIS 175317, 2′-MOE-modified IGF-IR antisense oligonucleotide, also known as ATL1101]
- fold higher Paclitaxel concentration (10 nM vs 1 nM) needed with 25 nM mismatch control for similar viability (PC3 cells; 25 nM ATL1101 with 1 nM Paclitaxel): 10 fold
- amount of Paclitaxel required to induce tumor cell apoptosis (PC3 cells; in combination with ATL1101): significantly reduced
- tumor volume compared to control oligodeoxynucleotide (PC3 tumors [1]): significantly reduced
- IGF-IR mRNA levels (IGF-IR mRNA): specifically reduced
- IGF-IRβ subunit protein levels (IGF-IRβ subunit protein): specifically reduced
- maximum reduction of cell viability relative to control (LNCaP cells; FBS media, achieved by 100 nM, three days after treatment): ~60%
- suppression of cell viability (LNCaP cells; androgen-deprived conditions (CSS), 25 nM): 60%
- IGF-IR expression [2]: undetectable
- activation of AKT and ERK1/2 [2]: suppressed
- cleaved PARP production [2]: increased
- mean tumor size (PC3 tumors [3]; after 5 weeks of treatment): 175+/−20.1 mm^3
- mean tumor size, % of control (PC3 tumors [3]; after 5 weeks of treatment): 53.7%
- mean tumor size (PC3 tumors [3]; after 8 weeks of treatment): 507+/−79.3 mm^3
- mean tumor size, % of control (PC3 tumors [3]; after 8 weeks of treatment): 35.8%
